Measured values from US9834558B2, “Substituted bridged urea analogs as sirtuin modulators” (GLAXOSMITHKLINE LLC, priority 2013, dated 2017).

target: T1, SIRT1 (Homo sapiens, UniProt Q96EB6); test: Trp mass spectrometry assay of SIRT1 activation; type: biochemical; conditions: Trp mass spectrometry assay; concentration of test compound giving 150% activation of SIRT1
T1 sequence (Q96EB6 1-747): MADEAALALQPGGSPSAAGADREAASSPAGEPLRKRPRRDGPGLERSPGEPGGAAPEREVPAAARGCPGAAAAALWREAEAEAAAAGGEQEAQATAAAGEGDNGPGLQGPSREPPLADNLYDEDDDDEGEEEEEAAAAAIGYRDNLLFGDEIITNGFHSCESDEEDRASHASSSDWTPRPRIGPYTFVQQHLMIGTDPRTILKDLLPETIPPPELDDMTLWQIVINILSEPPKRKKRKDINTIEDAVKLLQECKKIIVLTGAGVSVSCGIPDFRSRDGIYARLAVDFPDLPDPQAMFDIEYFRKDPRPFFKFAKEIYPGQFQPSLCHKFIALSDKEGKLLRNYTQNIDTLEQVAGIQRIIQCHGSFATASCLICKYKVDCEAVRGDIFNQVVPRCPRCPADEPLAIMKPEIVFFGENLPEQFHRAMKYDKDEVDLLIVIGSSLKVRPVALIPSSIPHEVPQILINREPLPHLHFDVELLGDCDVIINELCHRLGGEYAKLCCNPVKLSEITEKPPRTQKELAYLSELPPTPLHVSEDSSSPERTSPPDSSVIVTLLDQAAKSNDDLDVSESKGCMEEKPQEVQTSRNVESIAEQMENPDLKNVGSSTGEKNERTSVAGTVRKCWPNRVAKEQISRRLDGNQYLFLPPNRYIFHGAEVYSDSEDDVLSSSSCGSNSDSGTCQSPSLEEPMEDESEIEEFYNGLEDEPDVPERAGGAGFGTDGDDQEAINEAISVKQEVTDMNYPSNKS
In short: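 N-terminal His-tagged human SIRT1 (10 nM, E. coli BL21(DE3)) with 0.5 μM Ac-RHKK(Ac)W-NH2 peptide and 120 μM βNAD+, 25 min at 25 °C in HEPES pH 7.5, formic acid stop. OAADPR or deacetylated peptide quantified by mass spectrometry; EC1.5 (50% activity increase over control) and Percent Maximum Activation reported.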

Tryp AVG EC1.5 (μM), B (B (EC1.5 1-25 μM)):
COc1cc(NC(=O)N2c3nc(-c4cccc(CC(O)CO)c4)ccc3N3CC[C@H]2C3)ncn1 (stereo partly shown) [Example 355]
O=C(Nc1ccncc1F)N1c2nc(-c3cccc(CC(O)CO)c3)ccc2N2CC[C@H]1C2 (stereo partly shown) [Example 357]
O=C(Nc1cnccn1)N1c2nc(-c3cc(C(F)(F)F)cc(C(F)(F)F)c3)ccc2N2CC[C@H]1C2 [Example 363]
O=C(Nc1cnccn1)N1c2nc(-c3cc(Cl)cc(Cl)c3)ccc2N2CC[C@H]1C2 [Example 364]
COc1cc(NC(=O)N2c3nc(-c4ccnc(N5CCC(C(F)(F)F)C5)c4)ccc3N3CC[C@H]2C3)ncn1 (stereo partly shown) [Example 368]
Cc1n[nH]cc1-c1ccc2c(n1)N(C(=O)Nc1ccccn1)[C@H]1CCN2C1 [Example 370]
NC(=O)c1cncc(-c2ccc3c(n2)N(C(=O)Nc2ccccn2)[C@H]2CCN3C2)c1 [Example 371]
O=C(Nc1ccccn1)N1c2nc(-c3ccc4nonc4c3)ccc2N2CC[C@H]1C2 [Example 372]
O=C(Nc1ccccn1)N1c2nc(-c3cncc(F)c3)ccc2N2CC[C@H]1C2 [Example 374]
N#Cc1cccc(-c2ccc3c(n2)N(C(=O)Nc2cccnn2)[C@H]2CCCN3C2)c1 [Example 381]
CN(C)c1cccc(-c2ccc3c(n2)N(C(=O)Nc2ccc(F)cn2)[C@H]2CCCN3C2)c1 [Example 384]
CN(C)c1cccc(-c2ccc3c(n2)N(C(=O)Nc2ccccn2)[C@H]2CCCN3C2)c1 [Example 386]
COc1cc(NC(=O)N2c3nc(-c4ccnc(N5CCC(F)(F)C5)c4)ccc3N3CC[C@H]2C3)ncn1 [Example 390]
Cn1cc(-c2ccc3c(n2)N(C(=O)Nc2cccnc2)[C@H]2CCN3C2)cn1 [Example 395]
COc1ncc(-c2ccc3c(n2)N(C(=O)Nc2cnccn2)[C@H]2CCN3C2)c(OC)n1 [Example 398]
COc1ccc(-c2ccc3c(n2)N(C(=O)Nc2cnccn2)[C@H]2CCN3C2)cn1 [Example 399]
O=C(Nc1cnccn1)N1c2nc(-c3cncc(F)c3)ccc2N2CC[C@H]1C2 [Example 400]

Tryp AVG EC1.5 (μM), A (A (EC1.5<1 μM)):
C[C@@H]1CCN(C)c2ccc(-c3cccc(CC(O)CO)c3)nc2N1C(=O)Nc1ccc(F)cn1 (stereo partly shown) [Example 356]
O=C(Nc1ccc(F)cn1)N1c2nc(N3CCCC(C(F)(F)F)C3)ccc2N2CCC[C@H]1C2 (stereo partly shown) [Example 359]
O=C(Nc1ccncc1)N1c2nc(N3CCCC(C(F)(F)F)C3)ccc2N2CCC[C@H]1C2 (stereo partly shown) [Example 360]
O=C(Nc1cc(O)ncn1)N1c2nc(N3CCCC(C(F)(F)F)C3)ccc2N2CCC[C@H]1C2 (stereo partly shown) [Example 361]
O=C(Nc1cccc(-c2cnco2)c1)N1c2nc(-c3cccc(Cl)c3)ccc2N2CC[C@H]1C2 [Example 365]
COc1cncc(NC(=O)N2c3nc(-c4cccc(N5CCCC5)c4)ccc3N3CC[C@H]2C3)n1 [Example 366]
O=C(Nc1ccccn1)N1c2nc(-c3ccnc(N4CCC(C(F)(F)F)C4)c3)ccc2N2CC[C@H]1C2 (stereo partly shown) [Example 367]
O=C(Nc1ccccn1)N1c2nc(-c3cncc(C(F)(F)F)c3)ccc2N2CCC[C@H]1C2 [Example 369]
N#Cc1cncc(-c2ccc3c(n2)N(C(=O)Nc2ccccn2)[C@H]2CCN3C2)c1 [Example 373]
CS(=O)(=O)c1cncc(-c2ccc3c(n2)N(C(=O)Nc2ccccn2)[C@H]2CCCN3C2)c1 [Example 375]
CS(=O)(=O)c1cncc(-c2ccc3c(n2)N(C(=O)Nc2cccnc2)[C@H]2CCCN3C2)c1 [Example 376]
CS(=O)(=O)c1cncc(-c2ccc3c(n2)N(C(=O)Nc2cncc(F)c2)[C@H]2CCCN3C2)c1 [Example 377]
CS(=O)(=O)c1cncc(-c2ccc3c(n2)N(C(=O)Nc2cnccn2)[C@H]2CCCN3C2)c1 [Example 378]
CS(=O)(=O)c1cncc(-c2ccc3c(n2)N(C(=O)Nc2ccncn2)[C@H]2CCCN3C2)c1 [Example 379]
CS(=O)(=O)c1cncc(-c2ccc3c(n2)N(C(=O)Nc2cccnn2)[C@H]2CCCN3C2)c1 [Example 380]
Cc1nc(NC(=O)N2c3nc(-c4cccc(N(C)C)c4)ccc3N3CCC[C@H]2C3)sc1C [Example 383]
COc1cc(NC(=O)N2c3nc(-c4cccc(N(C)C)c4)ccc3N3CCC[C@H]2C3)ncn1 [Example 385]
O=C(Nc1ccccn1)N1c2nc(-c3cccc(Cl)c3)ccc2N2CCC[C@H]1C2 [Example 387]
O=C(Nc1ccccn1)N1c2nc(-c3ccnc(N4CCC(F)(F)C4)c3)ccc2N2CC[C@H]1C2 [Example 388]
O=C(Nc1ccc(F)cn1)N1c2nc(-c3ccnc(N4CCC(C(F)(F)F)C4)c3)ccc2N2CC[C@H]1C2 (stereo partly shown) [Example 391]
O=C(Nc1cccnc1)N1c2nc(-c3cncc(C(F)(F)F)c3)ccc2N2CC[C@H]1C2 [Example 392]
O=C(Nc1ccncn1)N1c2nc(-c3cncc(C(F)(F)F)c3)ccc2N2CCC[C@H]1C2 [Example 393]
COc1cc(NC(=O)N2c3nc(-c4cncc(C(F)(F)F)c4)ccc3N3CCC[C@H]2C3)ncn1 [Example 394]
COc1cc(-c2cccc(Cl)c2)nc2c1N1CC[C@@H](C1)N2C(=O)Nc1cnccn1 [Example 396]
O=C(Nc1ccc(F)cn1)N1c2nc(-c3cncc(Cl)c3)ccc2N2CCC[C@H]1C2 [Example 401]
Cc1nc(NC(=O)N2c3nc(-c4cncc(Cl)c4)ccc3N3CCC[C@H]2C3)sc1C [Example 402]
CN(C)c1cccc(-c2ccc3c(n2)N(C(=O)Nc2cnccn2)[C@H]2CCCN3C2)c1 [Example 403]
COc1cc(NC(=O)N2c3nc(-c4cncc(F)c4)ccc3N3CCC[C@H]2C3)ncn1 [Example 404]
COc1cc(NC(=O)N2c3nc(-c4cncc(Cl)c4)ccc3N3CCC[C@H]2C3)ncn1 [Example 405]
O=C(Nc1ccccn1)N1c2nc(-c3cncc(Cl)c3)ccc2N2CCC[C@H]1C2 [Example 406]
O=C(Nc1cccnc1)N1c2nc(-c3cccc(Cl)c3)ccc2N2CCC[C@H]1C2 [Example 407]
COc1cc(NC(=O)N2c3nc(-c4cccc(Cl)c4)ccc3N3CCC[C@H]2C3)ncn1 [Example 408]
O=C(Nc1ccncc1)N1c2nc(-c3cccc(Cl)c3)ccc2N2CCC[C@H]1C2 [Example 409]
O=C(Nc1cncc(F)c1)N1c2nc(-c3ccnc(N4CCC(C(F)(F)F)C4)c3)ccc2N2CC[C@H]1C2 (stereo partly shown) [Example 410]
O=C(Nc1cncc(F)c1)N1c2nc(-c3cncc(C(F)(F)F)c3)ccc2N2CCC[C@H]1C2 [Example 411]

Tryp AVG EC1.5 (μM), C (C (EC1.5>25 μM)):
COc1cc(NC(=O)N2c3nc(-c4ccnc(F)c4)ccc3N3CC[C@H]2C3)ncn1 [Example 358]
O=C(Nc1ccc(F)cn1)N1c2nc(N3CCCC(C(F)(F)F)C3)ccc2N2CCC[C@@H]1C2 (stereo partly shown) [Example 362]
CC(C)(C)OC(=O)N1CCCN(c2ccc3c(n2)N(C(=O)Nc2ccncn2)[C@H]2CCCN3C2)CC1 [Example 382]
O=C(Nc1cnccn1)N1c2nc(-c3cc(F)cc(F)c3)ccc2N2CC[C@H]1C2 [Example 397]

same assay, conditions: Trp mass spectrometry assay; percent maximum fold activation of SIRT1; read-out: Tryp % Fold Act

Emax, > 150%:
C[C@@H]1CCN(C)c2ccc(-c3cccc(CC(O)CO)c3)nc2N1C(=O)Nc1ccc(F)cn1 (stereo partly shown) [Example 356]
O=C(Nc1cnccn1)N1c2nc(-c3cc(C(F)(F)F)cc(C(F)(F)F)c3)ccc2N2CC[C@H]1C2 [Example 363]
